We go through four molecules from patent US20080181971A1, “Combination Cancer Treatments Comprising Elsamitrucin and Other Agents” (priority 2007, published 2008).

Common to all, as to type: cell-based
For experiment [1], the system named is HT29 human colon carcinoma cell line. In words: MTT growth inhibition assay, single agents and fixed-ratio combinations with elsamitrucin (Chou-Talalay, CalcuSyn), HT29. As to the method: (§1) These individual agents and their combinations were evaluated for in vitro activity against the HT29 colon carcinoma, SKMES non-small cell lung carcinoma, and Daudi B-lymphoblastic cell lines. Cell growth in 96-well microculture plates was determined with a semi-automated MTT assay. Efficacies of drug combinations were analyzed according to the methods of Chou and Talalay, utilizing CalcuSyn software. Twenty-one in vitro experiments were conducted to determine the individual and combined growth inhibitory activities of elsamitrucin and the ten selected agents in the three cell lines.
(§2) b. Cell Lines. The human HT29 colon carcinoma, SKMES non-small cell lung carcinoma, and Daudi B-lymphoblastic cell lines were originally obtained from ATCC (American Type Culture Collection). These cell lines have been maintained and stored as frozen stocks. […] The medium for Daudi cells was additionally supplemented with 1 mM sodium pyruvate.
(§3) c. Growth Inhibition Assay. Anti-proliferative activities against the HT29, SKMES, and Daudi cell lines were evaluated in vitro by the MTT assay. Cells (1,500-2,000 cells/well) were seeded in a 96-well microculture plate in 180 pL of medium/well. […] DMSO was present in all wells at a final concentration of 0.1%. […] When the appropriate cell density was attained in the control wells, the plates were centrifuged briefly, and 100 pL of the growth medium was removed. The cell cultures were incubated with 50 μL of MTT reagent (1 mg/mL in Dulbecco's phosphate-buffered saline) for 4 hr at 37° C. The resultant purple formazan precipitate was solubilized with 200 μL of 0.04 N HCl in isopropanol.
(§4) The results of each experiment were stored in Excel format.
(§5) d. Preliminary Experiments: Design and Data Analysis. […] The initial experiments utilized serial three-fold dilutions of the drugs to produce ten test concentrations over a broad concentration range. Based on the initial results, a narrower concentration range was selected, and serial 1:1.5 dilutions were utilized to produce ten test concentrations. Experiments were repeated as needed.
(§6) For assays that utilized lower dilution factors to produce narrower concentration ranges, the results were analyzed with both Prism and CalcuSyn (as described below) to allow comparison of the IC50 and Da, values. The results guided the selection of appropriate concentration ranges and concentration ratios for the combination experiments.
(§7) e. Combination Experiments: Design and Data Analysis. The fixed-ratio design of Chou was used for the combination experiments. For each experiment, the drug solutions were mixed at a ratio that was expected to provide approximately equipotent concentrations, and the mixture was serially diluted with medium containing 1% DMSO to yield 10× stock solutions of the test concentrations. […] Each agent was tested individually and in combination at seven concentrations. The concentration range selected for each assay was designed to bracket the concentrations that produced half-maximal effects (ED50) with each single agent and their mixture. The concentrations used for the single-drug assays were twice as high as their concentrations in the mixture. Each assay was performed in quadruplicate. For each drug combination, the individual agents and their mixture were assayed on the same 96-well plate. The effects of the individual drugs and their combinations were analyzed by the method of Chou and Talalay. The results of each experiment were entered into CalcuSyn (BIOSOFT) for dose-effect analysis.
(§8) where Acontrol and Adrug are the respective absorbances of vehicle control and drug-treated wells in the MIT assay.
(§9) where the slope, m, is related to the sigmoidicity of the dose-effect curve, with m=1, >1, and <1 indicating hyperbolic, sigmoidal, and reverse sigmoidal shapes, respectively.

Experiment [2] deals with SKMES human non-small cell lung carcinoma cell line. As to the kind of experiment: MTT growth inhibition assay, single agents and fixed-ratio combinations with elsamitrucin (Chou-Talalay, CalcuSyn), SKMES. The note with it: Homo sapiens. How it is done: as §1, §2, §3, §4, §5, §6, §7, §8, §9
Experiment [3] has as its system Daudi human lymphoma cell line. As to the kind of experiment: MTT growth inhibition assay, single agents and fixed-ratio combinations with elsamitrucin (Chou-Talalay, CalcuSyn), Daudi. The note with it: Homo sapiens, Daudi. How it is done:
as §1, §2, §3, §4, §5, §6, §7, §8, §9

The mark [4] stands for this setting: Homo sapiens, HT-29, SPA-01 (HT29-e21), single agent, dilution 1:3, read-out: Prism IC50.
[5] abbreviates: Homo sapiens, HT-29, SPA-04 (HT29-e22), single agent, dilution 1:1.5, read-out: CalcuSyn Dm.
[6] abbreviates: Homo sapiens, HT-29, SPA-04 (HT29-e22), single agent, dilution 1:1.5, read-out: Prism IC50.
The mark [7] stands for this setting: Homo sapiens, HT-29, average of preliminary single-agent experiments, HT29, read-out: Average IC50, Dm value.
[8] abbreviates: SKMES growth inhibition, second agent alone, one value per plate (Experiment ID), read-out: Dm Value (95% Confidence Interval), Individually, Second Agent.
Setting [9] is: SKMES, single agent on the same plate as the combination, read-out: Dm Value, Individually, Second Agent.
Setting [10] is: SPA-02 (SKMES-e22), single agent, dilution 1:3, read-out: Prism IC50.
The mark [11] stands for this setting: SPA-03 (SKMES-e23), single agent, dilution 1:1.5, read-out: CalcuSyn Dm.
Setting [12] is: SPA-03 (SKMES-e23), single agent, dilution 1:1.5, read-out: Prism IC50.
[13] abbreviates: SPA-09 (SKMES-e25), single agent, dilution 1:1.5, read-out: CalcuSyn Dm.
Setting [14] is: SPA-09 (SKMES-e25), single agent, dilution 1:1.5, read-out: Prism IC50.
Setting [15] is: average of preliminary single-agent experiments, SKMES, read-out: Average IC50, Dm value.
[16] abbreviates: Daudi growth inhibition, second agent alone, one value per plate, Table 8 (Supplement), read-out: Dm Value (95% Confidence Interval), Individually, Second Agent.
Setting [17] is: Daudi growth inhibition, second agent alone, Table 8, read-out: Dm Value (95% Confidence Interval), Individually, Second Agent.
The mark [18] stands for this setting: SPA-05 (Daudi-e01), single agent, dilution 1:3, read-out: Prism IC50.
Where [19] appears, read: SPA-08 (Daudi-e02), single agent, dilution 1:1.5, read-out: CalcuSyn Dm.
Where [20] appears, read: SPA-08 (Daudi-e02), single agent, dilution 1:1.5, read-out: Prism IC50.
Where [21] appears, read: average of preliminary single-agent experiments, read-out: Average IC50, Dm value.
Setting [22] is: read-out: approximate Dm values for the second drugs as single agents.
Where [23] appears, read: Homo sapiens, HT-29, HT29, single agent on the same plate as the combination, read-out: Dm Value, Individually, Second Agent.

Structures are written as SMILES. pIC50: −log10 of the molar value. Like-named read-outs stand apart in the source and are kept apart here.

For `COc1cccc2c1C(=O)c1c(O)c3c(c(O)c1C2=O)C[C@@](O)(C(=O)CO)C[C@@H]3O[C@H]1C[C@H](N)[C@H](O)[C@H](C)O1` [Doxorubicin, doxorubicin], the pIC50 is 7.32 in experiment [1] (HT29, single agent on the same plate as the combination, read-out: Dm Value, Individually, Second Agent); 7.40 in experiment [1] (setting [4]); 7.24 in experiment [1] (setting [5]); 7.54 in experiment [1] (setting [6]); 7.38 in experiment [1] (setting [7]); 7.08 in experiment [2] (setting [8]). For the same molecule, the pIC50 was 7.25 in experiment [2] (setting [9]); 8.15 in experiment [2] (setting [10]); roughly 6.70 in experiment [2] (setting [11]); roughly 7.30 in experiment [2] (setting [12]); 7.68 in experiment [2] (setting [13]); 7.64 in experiment [2] (setting [14]). In addition, the pIC50 was 7.77 in experiment [2] (setting [15]); 8.05 in experiment [3] (setting [16]); 8.05 in experiment [3] (setting [17]); roughly 9.00 in experiment [3] (setting [18]); roughly 7.48 in experiment [3] (setting [19]); roughly 8.02 in experiment [3] (setting [20]). For the same molecule, the pIC50 in experiment [3] (SPA-15 (Daudi-e03), single agent, dilution 1:1.5 (elsamitrucin 1:1.33), read-out: CalcuSyn Dm) was 8.30; in experiment [3] (SPA-15 (Daudi-e03), single agent, dilution 1:1.5 (elsamitrucin 1:1.33), read-out: Prism IC50) it was 8.30; in experiment [3] (setting [21]) it was 8.30; in experiment [3] (setting [22]), roughly 8.05.
As for `COc1cc([C@@H]2c3cc4c(cc3[C@@H](O[C@@H]3O[C@@H]5CO[C@@H](C)O[C@H]5[C@H](O)[C@H]3O)[C@H]3COC(=O)[C@H]23)OCO4)cc(OC)c1O` [Etoposide, etoposide], the pIC50 was 6.15 in experiment [1] (setting [23]); roughly 6.05 in experiment [1] (setting [4]); 6.12 in experiment [1] (setting [5]); 6.16 in experiment [1] (setting [6]); 6.14 in experiment [1] (setting [7]); 6.63 in experiment [2] (setting [8]). Moreover, the pIC50 is 6.63 in experiment [2] (setting [9]); 6.70 in experiment [2] (setting [10]); 6.50 in experiment [2] (setting [11]); 6.54 in experiment [2] (setting [12]); 6.57 in experiment [2] (setting [15]); 7.33 in experiment [3] (setting [16]). The pIC50 in experiment [3] (setting [17]) is 7.33; in experiment [3] (setting [18]), 7.69; in experiment [3] (setting [19]), 7.64; in experiment [3] (setting [20]), 7.51; in experiment [3] (setting [21]), 7.60; in experiment [3] (setting [22]), roughly 7.33.
On to `Nc1ccn([C@@H]2O[C@H](CO)[C@@H](O)C2(F)F)c(=O)n1` [Gemcitabine, gemcitabine], for which the pIC50 in experiment [1] (setting [23]) is 8.40; in experiment [1] (setting [4]), 8.34; in experiment [1] (setting [6]), 8.00; in experiment [1] (Homo sapiens, HT-29, SPA-10 (HT29-e24), single agent, dilution 1:1.5, read-out: CalcuSyn Dm), 8.22; in experiment [1] (Homo sapiens, HT-29, SPA-10 (HT29-e24), single agent, dilution 1:1.5, read-out: Prism IC50), 8.40; in experiment [1] (setting [7]), 8.30. Also, the pIC50 in experiment [2] (setting [8]) was 8.74; in experiment [2] (setting [9]), 8.55; in experiment [2] (setting [10]), 8.82; in experiment [2] (setting [11]) it was 8.74; in experiment [2] (setting [12]), 8.60; in experiment [2] (setting [15]) it was 8.70. The pIC50 in experiment [3] (setting [16]) was 8.92; in experiment [3] (setting [17]), 8.92; in experiment [3] (setting [18]), 9.22; in experiment [3] (setting [19]) it was 8.89; in experiment [3] (setting [20]) it was 8.85; in experiment [3] (setting [21]), 9.00. Moreover, the pIC50 in experiment [3] (setting [22]) was roughly 8.92.
`CN(Cc1cnc2nc(N)nc(N)c2n1)c1ccc(C(=O)N[C@@H](CCC(=O)O)C(=O)O)cc1` [Methotrexate, methotrexate]: the pIC50 in experiment [1] (setting [23]) is 7.66; in experiment [1] (setting [4]), 7.60; in experiment [1] (setting [5]), 7.64; in experiment [1] (setting [6]), 7.74; in experiment [1] (setting [7]), 7.66; in experiment [2] (setting [8]) it was 7.92. Also, the pIC50 is 8.09 in experiment [2] (setting [9]); roughly 9.22 in experiment [2] (setting [10]); 8.02 in experiment [2] (setting [13]); 8.07 in experiment [2] (setting [14]); 7.97 in experiment [2] (SPA-14 (SKMES-e27), single agent, dilution 1:1.5 (carmustine also 1:2, r12), read-out: CalcuSyn Dm); 7.98 in experiment [2] (SPA-14 (SKMES-e27), single agent, dilution 1:1.5 (carmustine also 1:2, r12), read-out: Prism IC50). Moreover, the pIC50 in experiment [2] (setting [15]) is 8.00; in experiment [3] (setting [16]), 7.35; in experiment [3] (setting [17]), 7.35; in experiment [3] (setting [18]) it was roughly 7.70; in experiment [3] (setting [19]), 7.30; in experiment [3] (setting [20]) it was 7.31. Besides, the pIC50 in experiment [3] (setting [21]) is 7.30; in experiment [3] (setting [22]), roughly 7.35.
